Assays:
Assay type in all cases: biochemical
[1] = target: T1, γ-secretase (C100FLAG APP-based substrate) (Homo sapiens, UniProt P49768); test: In vitro γ-secretase assay, C-100 Flag (APP-based substrate) cleavage; conditions: effect on C-100 Flag cleavage; compounds tested in vitro at 100 μM
T1 construct: made in house; host or cells: S-1 CHO cell line (Chinese hamster ovary)
Protocol: (§1) Purification of γ-Secretase and in Vitro γ-Secretase Assays—The following procedures can be used to isolate γ-secretase and measure its enzymatic activity. The multistep procedure for the high grade purification of human γ-secretase from the S-1 cells is performed as described previously (Fraering, P. C., et al. (2004) Biochemistry 43, 9774-9789). In vitro γ-secretase assays using the recombinant APP-based substrate C100FLAG and the recombinant Notch-based substrate N100FLAG are performed as reported previously (Esler, W. P., Kimberly, W. T., Ostaszewski, B. L., Ye, W., Diehl, T. S., Selkoe, D. J., and Wolfe, M. S. (2002) Proc. Natl. Acad. Sci. U.S.A. 99, 2720-2725, Kimberly, W. T., et al. (2003) Biochemistry 42, 137-144). Basically, the proteolytic reaction mixtures contain C100FLAG and N100FLAG substrate at a concentration of 1 μm, purified γ-secretase solubilized in 0.2% CHAPSO/HEPES, pH 7.5, at 10-fold dilution from stock (stock=the M2 anti-FLAG-eluted fraction in the purification protocol from S-1 cells (Fraering, P. C., et al. (2004) Biochemistry 43, 9774-9789)), 0.025% phosphatidylethanolamine (PE), and 0.10% phosphatidylcholine (PC). All the reactions are stopped by adding 0.5% SDS, and the samples are assayed for Aβ40 and Aβ42 by ELISA as described (Xia, W., Zhang, J., Ostaszewski, B. L., Kimberly, W. T., Seubert, P., Koo, E. H., Shen, J., and Selkoe, D. J. (1998) Biochemistry 37, 16465-16471). The capture antibodies are 2G3 (to Aβ residues 33-40) for the Aβ40 species and 21F12 (to Aβ residues 33-42) for the Aβ42 species.
(§2) Western Blotting and Antibodies—The following assay can be used to determine the extent to which the compounds of interest modulate the cleavage of APP and the Notch receptor. For Western analysis of PS1-NTF, PS1-CTF, Aph1α2-HA, FLAG-Pen-2, and NCT-GST, the samples are run on 4-20% Tris-glycine polyacrylamide gels, transferred to polyvinylidene difluoride, and can be probed with Ab14 (for PS1-NTF, 1:2000; a gift of S. Gandy), 13A11 (for PS1-CTF, 5 μg/ml; a gift of Elan Pharmaceuticals), 3F10 (for Aph1α2-HA, 50 ng/ml; Roche Applied Science), anti-FLAG M2 (for FLAG-Pen-2, 1:1000; Sigma), or αGST antibodies (for NCT-GST, 1:3000; Sigma). Samples from the γ-secretase activity assays (above) are run on 4-20% Tris-glycine gels and can be transferred to polyvinylidene difluoride membranes to detect AICD-FLAG with anti-FLAG M2 antibodies (1:1000, Sigma) and NICD-FLAG with Notch Ab1744 antibody (1:1000, Cell Signaling Technology), which is selective for the N terminus of NICD; the same samples are transferred to nitrocellulose membranes to detect Aβ with the anti-Aβ 6E10 antibody. Levels of AICD-FLAG and NICD-FLAG are estimated by densitometry using AlphaEase/Spot Denso (Alpha Innotech Corp.).
(§3) Naphthyl Amine Alcohol Analogs and Assay Data—Compounds listed in Table 2 may be assayed as described herein (e.g., in Examples 3 and 4) and the specificity may be evaluated by comparing the relative inhibitions of C-100 Flag and N-100 Flag cleavage. The potency of the inhibitor may be evaluated with an Aβ1-40 ELISA assay (e.g., using an Aβ40 ELISA kit available from Invitrogen, Carlsbad, Calif.). […] The following table indicates the properties of certain compounds of the invention that were assayed as described herein. (INH=Inhibits)

[2] = target: T2, γ-secretase (N100FLAG Notch-based substrate) (Homo sapiens, UniProt P49768); test: In vitro γ-secretase assay, N-100 Flag (Notch-based substrate) cleavage; conditions: effect on N-100 Flag cleavage; compounds tested in vitro at 100 μM
T2 construct: made in house; host or cells: S-1 CHO cell line (Chinese hamster ovary)
Protocol: as §1, §2, §3

[3] = target: T3, γ-secretase (Aβ1-40 production) (Homo sapiens, UniProt P49768); test: γ-Secretase assay, Aβ1-40 ELISA; conditions: 100 μM
T3 construct: made in house; host or cells: S-1 CHO cell line (Chinese hamster ovary)
Protocol: as §1, §3

γ-Secretase Assay C-100 Flag [1]	γ-Secretase Assay N-100 Flag [2]	inhibition at 100 µM [3] [%]	γ-Secretase Assay ELISA % Inhibition [100 μM] Aβ1-40 [3] [%]	SMILES
Inhibits (Inh)	Enhances (Enh)	16	–	CC(C)N(CCC(O)c1ccc2ccccc2c1)Cc1ccccc1 (centres unmarked) [Example 1, 3-(benzyl(isopropyl)amino)-1-(naphthalen-2-yl)propan-1-ol]
–	Inh	47	–	CC(C)N(CCC(O)c1cc(C(F)(F)F)cc(C(F)(F)F)c1)Cc1ccccc1 (centres unmarked) [Example 57]
Inh	Enh	64	–	CC(C)N(CCC(O)c1ccc2ccccc2c1)Cc1ccc(F)c(F)c1 (centres unmarked) [Example 18]
–	Inh	29	–	Cc1ccc(C(O)CCN(Cc2ccccc2)C(C)C)cc1F (centres unmarked) [Example 54]
Inh	Inh	40	–	OC(CCNc1ccc(F)c(Cl)c1)c1ccc2ccccc2c1 (centres unmarked) [Example 33]
Enh	Enh	38	–	OC(CCN1CCN(c2cccc(C(F)(F)F)c2)CC1)c1ccc2ccccc2c1 (centres unmarked) [Example 13]
Inh	Enh.	46	–	CC(C)N(CCC(O)c1cccc2ccccc12)Cc1ccccc1 (centres unmarked) [Example 19]
–	Enh	–	56	CN(CCC(O)c1ccc2ccccc2c1)Cc1ccccc1 (centres unmarked) [Example 44]
Inh	Enh	61	–	OC(CCN1CCN(c2ccc(F)cc2)CC1)c1ccc2ccccc2c1 (centres unmarked) [Example 14, 3-(4-(4-fluorophenyl)piperazin-1-yl)-1-(naphthalen-2-yl)propan-1-ol]
–	Inh	20	–	Cc1cccc(C)c1C(O)CCN(Cc1ccccc1)C(C)C (centres unmarked) [Example 56]
Inh	Inh	46	–	O=[N+]([O-])c1cc(NCCC(O)c2ccc3ccccc3c2)ccc1Cl (centres unmarked) [Example 83]
Inh	Enh	60	–	CC(C)N(CCC(O)c1ccc2ccccc2c1)Cc1ccc(Cl)c(Cl)c1 (centres unmarked) [Example 17]
Inh	Inh	40	–	CCOc1ccc(NCCC(O)c2ccc3ccccc3c2)cc1 (centres unmarked) [Example 32]
–	Inh	0	–	CC(C)N(CC[C@@H](O)c1ccc2ccccc2c1)Cc1ccccc1 [Example 75]
Inh	Inh	68	–	CC(C)N(CCC(O)c1ccc2ccccc2c1)c1ccccc1 (centres unmarked) [Example 20]
Inh	Inh	0	–	CC(C)N(Cc1ccccc1)CC(O)c1ccc2ccccc2c1 (centres unmarked) [Example 82]
–	Enh	0	–	OC(CN1CCN(c2ccccc2)CC1)c1ccc2ccccc2c1 (centres unmarked) [Example 81]
Inh	Inh	54	–	CC(C)N(CCC(O)c1ccc2ccccc2c1)Cc1cc(F)cc(F)c1 (centres unmarked) [Example 31]
–	Enh	27	–	CC(C)N(CCC(O)c1ccc(C(F)(F)F)cc1)Cc1ccccc1 (centres unmarked) [Example 41]
